Assay results published in paper doi:10.1101/850305v1 (biorxiv, 2019).
≈ marks a conversion by molar mass, not a printed value. Read-outs that look alike come from different tables or passages of the source. One block for each compound: values may come before it.

How the values were obtained:
CDY0154 E. coli Δ9efflux = test: microbe, parasite or virus in culture; details: Escherichia coli
VECO2526 E. coli ΔtolC = test: microbe, parasite or virus in culture; details: Escherichia coli
[1] = test system: ATCC 25922 E. coli clinical isolates; test: microbe, parasite or virus in culture; details: Escherichia coli
[2] = test system: Escherichia coli TUP0115 ΔtolC pLacZα; test: microbe, parasite or virus in culture; details: read-out: MIC
MG1655 E. coli K-12 = test: microbe, parasite or virus in culture; details: Escherichia coli
E. coli LpxA [3] = molecular target: T1, E. coli LpxA (Escherichia coli, UniProt P0A722); test: SPE-MS detection of LpxA product; format: biochemical
T1 sequence (P0A722 1-262): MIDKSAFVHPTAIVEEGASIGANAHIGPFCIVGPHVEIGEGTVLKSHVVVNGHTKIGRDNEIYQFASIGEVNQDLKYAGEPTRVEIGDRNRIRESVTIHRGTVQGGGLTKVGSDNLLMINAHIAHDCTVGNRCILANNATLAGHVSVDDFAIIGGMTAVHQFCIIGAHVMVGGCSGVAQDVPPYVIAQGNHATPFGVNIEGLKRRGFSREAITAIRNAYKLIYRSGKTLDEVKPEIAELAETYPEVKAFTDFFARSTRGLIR

E. coli LpxA [4] = molecular target: T1, E. coli LpxA; test: SPR; format: binding
E. coli LpxA [5] = molecular target: T1, E. coli LpxA; test: SPE-MS detection of LpxA product; format: biochemical; remark: listed apart in the source
E. coli LpxA [6] = molecular target: T1, E. coli LpxA; test: SPR; format: binding; remark: listed apart in the source
E. coli LpxA [7] = molecular target: T1, E. coli LpxA; test: SPE-MS detection of LpxA product; format: biochemical; remark: listed apart in the source

SMILES: C[C@@H](O)[C@H](NC(=O)c1ccc(C#Cc2ccc(CN3CCOCC3)cc2)cc1)C(=O)NO [CHIR-090]
MIC (CDY0154 E. coli Δ9efflux; read-out: MIC CHIR-090): 0.075 µg/mL (≈ 0.171 µM)
MIC (VECO2526 E. coli ΔtolC; read-out: MIC CHIR-090): 0.015 µg/mL (≈ 0.0343 µM)

SMILES: COc1ccc(C(=O)CN2C(=O)NC(c3ccccc3)(c3ccccc3)C2=O)cc1 [compound 1]
MIC ([1]; ATCC25922, read-out: MIC compound 1): > 16 µg/mL
MIC [2]: 0.5 µg/mL (≈ 1.25 µM)
MIC (CDY0154 E. coli Δ9efflux; read-out: MIC compound 1): 0.5 µg/mL (≈ 1.25 µM)
MIC (VECO2526 E. coli ΔtolC; read-out: MIC compound 1): 0.5 µg/mL (≈ 1.25 µM)
MIC (MG1655 E. coli K-12; MG1655, read-out: MIC compound 1): > 16 µg/mL
IC50 (E. coli LpxA [3]): 1.4 µM
Kd (E. coli LpxA [4]): 0.1 µM

SMILES: Cc1ccnc(-c2cc(C(=O)N3CCOC[C@H]3Cc3ccccc3)[nH]n2)c1 [compound 2]
MIC ([1]; ATCC25922, read-out: MIC compound 2): > 128 µg/mL
MIC (CDY0154 E. coli Δ9efflux; read-out: MIC compound 2): 2 µg/mL (≈ 5.52 µM)
MIC (VECO2526 E. coli ΔtolC; read-out: MIC compound 2): 2 µg/mL (≈ 5.52 µM)
MIC (MG1655 E. coli K-12; MG1655, read-out: MIC compound 2): > 128 µg/mL
IC50 (E. coli LpxA [5]): 4.8 µM
Kd (E. coli LpxA [6]): 110 µM

SMILES: Cc1ccnc(-c2cc(C(=O)N3CCOCC3)[nH]n2)c1 [compound 3]
IC50 (E. coli LpxA [3]): > 250 µM

SMILES: Cc1ccnc(-c2cc(C(=O)N3CCOC[C@H]3C(C)C)[nH]n2)c1 [compound 4]
IC50 (E. coli LpxA [3]): 148 µM

SMILES: Cc1ccnc(-c2cc(C(=O)N3CCOC[C@H]3Cc3ccccn3)[nH]n2)c1 [compound 5]
IC50 (E. coli LpxA [3]): 86 µM

SMILES: Cc1ccnc(-c2cc(C(=O)N3CCOC[C@H]3Cc3ccccc3F)[nH]n2)c1 [compound 6]
IC50 (E. coli LpxA [7]): 3 µM

SMILES: Cc1ccnc(-c2cc(C(=O)N3CCOC[C@H]3Cc3ccccc3Cl)[nH]n2)c1 [compound 7]
IC50 (E. coli LpxA [3]): 2.9 µM

SMILES: COc1ccccc1C[C@@H]1COCCN1C(=O)c1cc(-c2cc(C)ccn2)n[nH]1 [compound 8]
IC50 (E. coli LpxA [7]): 11 µM

Next, values leading:

IC50 (E. coli LpxA [3]): 2.5 µM
SMILES: COc1cccc(F)c1C[C@@H]1COCCN1C(=O)c1cc(-c2cc(C)ccn2)n[nH]1 [compound 9]

IC50 (E. coli LpxA [3]): 0.5 µM
SMILES: COc1cccc(Cl)c1C[C@@H]1COCCN1C(=O)c1cc(-c2cc(C)ccn2)n[nH]1 [compound 11]

IC50 (E. coli LpxA [3]): 171 µM
SMILES: Cc1ccnc(-c2cc(C(=O)N3CCOC[C@@H]3Cc3ccccc3)[nH]n2)c1 [compound 12]

IC50 (E. coli LpxA [7]): 0.6 µM
SMILES: COc1cccc(Cl)c1C[C@@H]1COCCN1C(=O)c1cc(-c2cc(C)c(N)cn2)n[nH]1 [compound 13]
